For the data set, the system named is Human gingival fibroblasts (HGF-1). Nature of the data set: In vitro cytotoxicity (MTS) of PAMAM scaffolds. The class given is cell-based. Here is the method:
The toxicity of the PAMAM scaffolds to human gingival fibroblasts (HGF-1) was evaluated after 2 and 24 h exposure times. Human gingival fibroblasts (HGF-1) were grown in FibroLife fibroblast serum-free media, and incubated in 5 vol % CO2 under humidified conditions at 37° C. The cells were trypsinized at 80% confluency and seeded into tissue culture-treated polystyrene 96-well plates at a density of 10^4 cells/well. The plates were incubated for an additional 24 h at 37° C. The supernatant was aspirated and replaced with 100 μL of fresh growth medium containing various concentrations of PAMAM scaffolds. After two incubation time points (i.e., 2 and 24 h) at 37° C., the supernatant was aspirated, and the cells were washed with DPBS. A 100 μL solution of media/MTS/PMS (105/20/1, v/v/v) solution was added to each well, and incubated for 3 h at 37° C. The absorbance of the colored supernatant was quantified at 490 nm using a Thermoscientific Multiskan EX plate reader (Waltham, MA). Measurements for untreated cells (control) and media/MTS/PMS mixture (blank) were also collected. Results were expressed as percentage of relative cell viability as follows: % cell viability=[(Abs490−Absblank)□/(Abscontrol−Absblank)]×100% (Eq. 1)
A killing curve was constructed for NO-releasing and control PAMAM scaffolds by plotting % cell viability versus concentration (mg mL^−).

For Hyperbranched polyamidoamine [h-PAMAM], the “toxicity to HGF-1 (in words)” value was “most toxic”.

The values are drawn from US12460050B2, “Nitric oxide-releasing hyperbranched compounds as antibacterial scaffolds and methods pertaining thereto” (The University of North Carolina at Chapel Hill, priority 2017, dated 2025).
